From patent publication US11224565B2, “N-acyldipeptide derivatives and their uses” (NeoStrata Company, Inc., priority 2011, dated 2022)
Peptide text beside a SMILES is read from it.

Assays:
Format in all cases: in vivo, human
Settings in all cases: efficacy grade
Nerve disorders = assay: Summary of test results in volunteer subjects: nerve disorders
Excerpt: (§1) In one embodiment, a composition for topical application to test its therapeutic effect was formulated by dissolving a bioactive dipeptide derivative of the present invention in a solution prepared from 40 parts water, 40 parts ethanol and 20 parts propylene glycol by volume (WEP442). In another embodiment, a composition was formulated by dissolving a bioactive dipeptide derivative of the present invention in a non-aqueous solution prepared from 80 parts ethanol and 20 parts propylene glycol by volume (EP82). In yet another embodiment, a composition was formulated first by dissolving a bioactive dipeptide derivative of the present invention in a solution prepared from 80 parts water and 20 parts propylene glycol by volume (WP82), and the solution thus prepared was mixed with an oil-in-water emulsion or cream. In another embodiment, the volunteer subject topically applied the test compositions containing N-acyldipeptide derivatives of the present invention on involved skin or lesions once or twice daily for several weeks or until the involved lesions completely cleared and clinically changed to normal skin. As a control study, the subject also topically applied a vehicle control composition on the involved skin or lesions twice daily for the same period. In yet another embodiment, the volunteer subject topically applied once or twice daily the test compositions containing N-acyldipeptide derivatives of the present invention on the skin site above arthritic joints or painful muscles to provide therapeutic effects for the systemic disorders via topical administration. Some test results are summarized as follows. ND: Nerve disorders

Disturbed keratinization = assay: Summary of test results in volunteer subjects: disturbed keratinization
Excerpt: as §1, with “DK: Disturbed keratinization” for “ND: Nerve disorders”

[1] = test system: Aging related changes of skin, nail and hair; assay: Summary of test results in volunteer subjects: aging related changes
Excerpt: as §1, with “AG: Aging related changes of skin, nail and hair” for “ND: Nerve disorders”

[2] = test system: Deranged immune disorders and inflammation; assay: Summary of test results in volunteer subjects: deranged immune disorders and inflammation
Excerpt: In one embodiment, a composition for topical application to test its therapeutic effect was formulated by dissolving a bioactive dipeptide derivative of the present invention in a solution prepared from 40 parts water, 40 parts ethanol and 20 parts propylene glycol by volume (WEP442). In another embodiment, a composition was formulated by dissolving a bioactive dipeptide derivative of the present invention in a non-aqueous solution prepared from 80 parts ethanol and 20 parts propylene glycol by volume (EP82). In yet another embodiment, a composition was formulated first by dissolving a bioactive dipeptide derivative of the present invention in a solution prepared from 80 parts water and 20 parts propylene glycol by volume (WP82), and the solution thus prepared was mixed with an oil-in-water emulsion or cream. In another embodiment, the volunteer subject topically applied the test compositions containing N-acyldipeptide derivatives of the present invention on involved skin or lesions once or twice daily for several weeks or until the involved lesions completely cleared and clinically changed to normal skin. As a control study, the subject also topically applied a vehicle control composition on the involved skin or lesions twice daily for the same period. In yet another embodiment, the volunteer subject topically applied once or twice daily the test compositions containing N-acyldipeptide derivatives of the present invention on the skin site above arthritic joints or painful muscles to provide therapeutic effects for the systemic disorders via topical administration. Some test results are summarized as follows. DI: Deranged immune disorders and inflammation

Structure (SMILES) | ND (Nerve disorders) | DK (Disturbed keratinization) | AG [1] | DI [2]
CC(=O)Nc1ccccc1C(=O)NCC(N)=O [N-Ac-Abz-Gly-NH2] | 3+ (3+: 75% Efficacy) | 2+ (2+: 50% Efficacy) | 2+ (2+: 50% Efficacy) | 3+ (3+: 75% Efficacy)
CC(=O)NCCCC(=O)NCC(N)=O [N-Ac-Gaba-Gly-NH2] | 2+ (2+: 50% Efficacy) | 2+ (2+: 50% Efficacy) | 2+ (2+: 50% Efficacy) | 2+ (2+: 50% Efficacy)
CC(=O)NCC(=O)NCC(N)=O [N-Ac-Gly-Gly-NH2] | 2+ (2+: 50% Efficacy) | 2+ (2+: 50% Efficacy) | 2+ (2+: 50% Efficacy) | 2+ (2+: 50% Efficacy)
CC(=O)NCC(=O)N1CCC[C@H]1C(N)=O [N-Ac-Gly-L-Pro-NH2] (Ac-Gly-Pro-NH2) | 2+ (2+: 50% Efficacy) | 2+ (2+: 50% Efficacy) | 2+ (2+: 50% Efficacy) | 2+ (2+: 50% Efficacy)
CC[C@H](C)[C@H](NC(=O)[C@H](C)NC(C)=O)C(N)=O [N-Ac-L-Ala-L-Ile-NH2] (Ac-Ala-Ile-NH2) | 3+ (3+: 75% Efficacy) | 2+ (2+: 50% Efficacy) | 2+ (2+: 50% Efficacy) | 3+ (3+: 75% Efficacy)
CC(=O)N[C@@H](CC(N)=O)C(=O)NCC(N)=O [N-Ac-L-Asn-Gly-NH2] (Ac-Asn-Gly-NH2) | 2+ (2+: 50% Efficacy) | 2+ (2+: 50% Efficacy) | 2+ (2+: 50% Efficacy) | 2+ (2+: 50% Efficacy)
CC(=O)N[C@@H](CS)C(=O)NCC(N)=O [N-Ac-L-Cys-Gly-NH2] | 2+ (2+: 50% Efficacy) | 2+ (2+: 50% Efficacy) | 2+ (2+: 50% Efficacy) | 2+ (2+: 50% Efficacy)
CC(=O)N[C@@H](CS)C(=O)N[C@@H](CS)C(=O)O [N-Ac-L-Cys-L-Cys-OH] (Ac-Cys-Cys-OH) | 2+ (2+: 50% Efficacy) | 2+ (2+: 50% Efficacy) | 3+ (3+: 75% Efficacy) | 2+ (2+: 50% Efficacy)
CC(=O)N[C@@H](CCC(N)=O)C(=O)NCC(N)=O [N-Ac-L-Gln-Gly-NH2] (Ac-Gln-Gly-NH2) | 2+ (2+: 50% Efficacy) | 2+ (2+: 50% Efficacy) | 2+ (2+: 50% Efficacy) | 2+ (2+: 50% Efficacy)
CC(=O)N[C@@H](Cc1c[nH]cn1)C(=O)NCC(N)=O [N-Ac-L-His-Gly-NH2] (Ac-His-Gly-NH2) | 2+ (2+: 50% Efficacy) | 2+ (2+: 50% Efficacy) | 2+ (2+: 50% Efficacy) | 2+ (2+: 50% Efficacy)
CC[C@H](C)[C@H](NC(C)=O)C(=O)NCC(N)=O [N-Ac-L-Ile-Gly-NH2] (Ac-Ile-Gly-NH2) | 4+ (4+: 95-100% Efficacy) | 3+ (3+: 75% Efficacy) | 3+ (3+: 75% Efficacy) | 4+ (4+: 95-100% Efficacy)
CC[C@H](C)[C@H](NC(C)=O)C(=O)NCC(=O)O [N-Ac-L-Ile-Gly-OH] (Ac-Ile-Gly-OH) | 4+ (4+: 95-100% Efficacy) | 2+ (2+: 50% Efficacy) | 2+ (2+: 50% Efficacy) | 3+ (3+: 75% Efficacy)
CC[C@H](C)[C@H](NC(C)=O)C(=O)N[C@@H](C)C(N)=O [N-Ac-L-Ile-L-Ala-NH2] (Ac-Ile-Ala-NH2) | 4+ (4+: 95-100% Efficacy) | 2+ (2+: 50% Efficacy) | 2+ (2+: 50% Efficacy) | 4+ (4+: 95-100% Efficacy)
CC[C@H](C)[C@H](NC(C)=O)C(=O)N[C@@H](C)C(=O)O [N-Ac-L-Ile-L-Ala-OH] (Ac-Ile-Ala-OH) | 2+ (2+: 50% Efficacy) | 2+ (2+: 50% Efficacy) | 2+ (2+: 50% Efficacy) | 2+ (2+: 50% Efficacy)
CC[C@H](C)[C@H](NC(=O)[C@@H](NC(C)=O)[C@@H](C)CC)C(N)=O [N-Ac-L-Ile-L-Ile-NH2] (Ac-Ile-Ile-NH2) | 4+ (4+: 95-100% Efficacy) | 3+ (3+: 75% Efficacy) | 2+ (2+: 50% Efficacy) | 3+ (3+: 75% Efficacy)
CC[C@H](C)[C@H](NC(C)=O)C(=O)N[C@@H](Cc1ccc(O)cc1)C(N)=O [N-Ac-L-Ile-L-Tyr-NH2] (Ac-Ile-Tyr-NH2) | 2+ (2+: 50% Efficacy) | 2+ (2+: 50% Efficacy) | 2+ (2+: 50% Efficacy) | 2+ (2+: 50% Efficacy)
CC(=O)N[C@@H](CC(C)C)C(=O)NCC(=O)O [N-Ac-L-Leu-Gly-OH] (Ac-Leu-Gly-OH) | 3+ (3+: 75% Efficacy) | 2+ (2+: 50% Efficacy) | 2+ (2+: 50% Efficacy) | 3+ (3+: 75% Efficacy)
CC(=O)N[C@@H](CC(C)C)C(=O)N[C@@H](C)C(N)=O [N-Ac-L-Leu-L-Ala-NH2] (Ac-Leu-Ala-NH2) | 4+ (4+: 95-100% Efficacy) | 3+ (3+: 75% Efficacy) | 3+ (3+: 75% Efficacy) | 4+ (4+: 95-100% Efficacy)
CC(=O)N[C@@H](CC(C)C)C(=O)N[C@@H](C)C(=O)O [N-Ac-L-Leu-L-Ala-OH] (Ac-Leu-Ala-OH) | 3+ (3+: 75% Efficacy) | 2+ (2+: 50% Efficacy) | 2+ (2+: 50% Efficacy) | 3+ (3+: 75% Efficacy)
CC(=O)N[C@@H](CC(C)C)C(=O)N[C@@H](CC(C)C)C(N)=O [N-Ac-L-Leu-L-Leu-NH2] | 2+ (2+: 50% Efficacy) | 2+ (2+: 50% Efficacy) | 2+ (2+: 50% Efficacy) | 2+ (2+: 50% Efficacy)
CC(=O)N[C@@H](CC(C)C)C(=O)N[C@@H](Cc1ccc(O)cc1)C(N)=O [N-Ac-L-Leu-L-Tyr-NH2] (Ac-Leu-Tyr-NH2) | 2+ (2+: 50% Efficacy) | 2+ (2+: 50% Efficacy) | 2+ (2+: 50% Efficacy) | 2+ (2+: 50% Efficacy)
CC(=O)N[C@@H](Cc1ccccc1)C(=O)N[C@@H](Cc1ccccc1)C(N)=O [N-Ac-L-Phe-L-Phe-NH2] (Ac-Phe-Phe-NH2) | 2+ (2+: 50% Efficacy) | 2+ (2+: 50% Efficacy) | 2+ (2+: 50% Efficacy) | 2+ (2+: 50% Efficacy)
CC(=O)N[C@@H](CO)C(=O)NCC(N)=O [N-Ac-L-Ser-Gly-NH2] (Ac-Ser-Gly-NH2) | 2+ (2+: 50% Efficacy) | 2+ (2+: 50% Efficacy) | 2+ (2+: 50% Efficacy) | 2+ (2+: 50% Efficacy)
CC(=O)N[C@@H](Cc1c[nH]c2ccccc12)C(=O)N[C@@H](Cc1c[nH]c2ccccc12)C(N)=O [N-Ac-L-Trp-L-Trp-NH2] (Ac-Trp-Trp-NH2) | 2+ (2+: 50% Efficacy) | 2+ (2+: 50% Efficacy) | 2+ (2+: 50% Efficacy) | 2+ (2+: 50% Efficacy)
